Assay [1] is described as follows: Inhibition of reverse transcriptase L100I mutant in HIV1 infected in human MT4 cells assessed as protection against virus induced cytotoxicity after 5 days by MTT assay. In general terms: Tetrazolium assays rely on reduction of a dye to a coloured formazan, in cell work by metabolically active cells.
The nature of assay [2]: Inhibition of reverse transcriptase Y181C mutant in HIV1 infected in human MT4 cells assessed as protection against virus induced cytotoxicity after 5 days by MTT assay.
Assay [3] can be described thus: Inhibition of reverse transcriptase E138K mutant in HIV1 infected in human MT4 cells assessed as protection against virus induced cytotoxicity after 5 days by MTT assay.
The nature of assay [4]: Inhibition of reverse transcriptase K103N mutant in HIV1 infected in human MT4 cells assessed as protection against virus induced cytotoxicity after 5 days by MTT assay.
The nature of assay [5]: Inhibition of reverse transcriptase Y188L mutant in HIV1 infected in human MT4 cells assessed as protection against virus induced cytotoxicity after 5 days by MTT assay.
Assay [6] in a line: Inhibition of reverse transcriptase F227L/V106A double mutant in HIV1 infected in human MT4 cells assessed as protection against virus induced cytotoxicity after 5 days by MTT assay.
Assay [7] is described as follows: Inhibition of reverse transcriptase K103N/Y181C double mutant in HIV1 infected in human MT4 cells assessed as protection against virus induced cytotoxicity after 5 days by MTT assay.

As a reminder, the EC50 is the midpoint of the concentration-response curve.

As to `Cc1cc(C)cc(S(=O)(=O)n2c(SCC(=O)Nc3ccc(S(N)(=O)=O)cc3)nc3ccccc32)c1`, the EC50 in assay [1] is 73 nM; in assay [2], above 27.2 µM; in assay [3], 60 nM; in assay [4], 670 nM; in assay [5], 1.56 µM; in assay [6], 1580 nM. In addition, the concentration for a half-maximal effect (EC50) in assay [7] was above 27.2 µM.

Take `Cc1ccc(NC(=O)CSc2nc3ccccc3n2S(=O)(=O)c2cc(C)cc(C)c2)cc1`: the EC50 in assay [1] was 240 nM; in assay [2] it was above 3.13 µM; in assay [3], 160 nM; in assay [4], above 3130 nM; in assay [5] it was above 3.13 µM; in assay [6], above 3130 nM. Also, in assay [7], the EC50 is above 3.13 µM.

As for `Cc1cc(C)cc(S(=O)(=O)n2c(SCC(=O)Nc3ccc(S(C)(=O)=O)cc3)nc3ccccc32)c1`, the EC50 in assay [1] is 88 nM; in assay [2], above 10.6 µM; in assay [3], 150 nM; in assay [4], 1190 nM; in assay [5] it was above 10.6 µM; in assay [6], above 770 nM. The EC50 in assay [7] is above 10.6 µM.

On to `Cc1cc(C)cc(S(=O)(=O)n2c(SCC(=O)Nc3ccc(C(=O)O)cc3)nc3ccccc32)c1`, for which the EC50 in assay [1] was 1820 nM; in assay [2] it was 23.6 µM; in assay [3] it was 1350 nM; in assay [4], 11800 nM; in assay [5], above 124 µM; in assay [6], above 124000 nM. For the same compound, in assay [7], the EC50 is above 124 µM.

For `Cc1cc(C)cc(S(=O)(=O)n2c(OCC(=O)Nc3ccc(S(C)(=O)=O)cc3Cl)nc3ccccc32)c1`, the EC50 in assay [1] is 290 nM; in assay [2], 0.89 µM; in assay [3] it was 670 nM; in assay [4], above 33900 nM; in assay [5], above 228 µM; in assay [6], 1820 nM.

For `COC(=O)c1ccc(NC(=O)CSc2nc3ccccc3n2S(=O)(=O)c2cc(C)cc(C)c2)cc1`, the EC50 is 170 nM in assay [1]; above 8.36 µM in assay [2]; 160 nM in assay [3]; 960 nM in assay [4]; above 8.36 µM in assay [5]; above 8360 nM in assay [6]. In assay [7], the EC50 is above 8.36 µM.

The values above are taken from BindingDB's records for doi:10.1016/j.bmc.2017.12.033 (University of Messina, 2018).
